According to patent publication EP1984014B1, “USE OF TPO PEPTIDE COMPOUNDS AND PHARMACEUTICAL COMPOSITIONS IN THE TREATMENT OF ANEMIA” (Janssen Pharmaceutica NV, priority 2006, dated 2007):

Columns and labels:
carboplatin treated mice = experiment: Example 6: mechanistic study, increasing carboplatin doses, platelets, hematocrit, brain fibrinogen/fibrin histology; format: in vivo
Procedure: (§1) The effects of PEGylated TPO Compound No. 1 on mice treated with carboplatin were observed. For all examples herein, a 10 mg/ml stock solution of PEGylated TPO Compound No. 1 was prepared in sterile saline. For mixing, the preparation was placed on a gyratory shaker for 15min. at 200 rpm. This method was used to dissolve PEGylated TPO Compound No. 1 without foaming. The stock was filtered using a GV Millex (0.22um) filter. Dosing solutions were then prepared from this stock using sterile saline. The stock and dosing solutions were prepared fresh on the day of use.
For mechanistic studies, groups of mice were treated with vehicle or increasing amounts of carboplatin (i.e., 60, 70 or 80 mg/kg) for 2 consecutive days (Day -1 & Day 0). Approximately one hour following the second dose of carboplatin, groups of mice were treated with PEGylated TPO Compound No.1 (100ug/kg) or vehicle (sterile saline, SS, preservative-free 0.9% sodium chloride) by IV.(bolus) injection as delineated in Table 5.
On Day 15, the mice in all treatment groups were euthanised using CO2-asphyxiation and exsanguinations via cardiac puncture. The blood samples were transferred to separate EDTA (lavender-top) microtainers for hematologic evaluation. In addition, several organs (including the brains) of control mice and mice treated with 2x70 mg/kg carboplatin without and with co-treatment with PEGylated TPO Compound No.1 were isolated and processed for histological examination. Sections of these tissues were processed immunohistochemically for fibrinogen/fibrin.

[1] = tested on: mice treated with carboplatin; experiment: Example 3: dosing 1 hour, 1 day or 4 days after carboplatin, anemia in mice; format: in vivo, BALB/c mouse
Procedure: as §1
The effect of PEGylated TPO Compound No. 1 on the duration and severity of anemia following dosing regimens in which PEGylated TPO Compound No. 1 is administered at various times following the carboplatin treatment was observed. For this study, an amount of PEGylated TPO Compound No. 1 was administered to mice, one (1) hour, one (1) day or four (4) days following a carboplatin dose.
The groups of mice were treated with either carboplatin or vehicle (Phosphate Buffered Saline, PBS) by ip administration on Days -1 and 0 as delineated below. The optimal dose of carboplatin used to induce thrombocytopenia in the BALB/c mouse strain was previously determined to be a fractionated total dose of 120mg/kg given as two consecutive daily injections (i.e., 2x60mg/kg). One hour (Day 0), one day (Day 1) or four days (Day 4) following the second dose of carboplatin, groups of mice were treated with PEGylated TPO Compound No. 1 (300ug/kg) or vehicle (sterile saline, SS, preservative-free 0.9% sodium chloride) by IV (bolus) injection as delineated in Table 3. The dose was administered on a per-weight basis (100ul/10g body weight).
On Days 6, 8, 10 & 12, five mice in each test group were weighed and then euthanised using CO2-asphyxiation and exsanguinations via cardiac puncture. The blood samples were transferred to separate EDTA (lavender-top) microcontainers for hematological evaluation. Groups of control mice (5) were processed on Days 6 & 12. The data are presented graphically as group means + SEM.

[2] = tested on: mice treated with carboplatin; experiment: Example 1: dose response of PEGylated TPO Compound No. 1 given one day after carboplatin, anemia in mice; format: in vivo, BALB/c mouse
Procedure: as §1
The effect of PEGylated TPO Compound No. 1 on the duration and severity of anemia following treatment of mice with carboplatin as determined by changes in hemoglobin levels, red blood cell count and hematocrit, was observed. For this study, increasing amounts of PEGylated TPO Compound No. 1 were administered to mice one day following a carboplatin dose to characterize a possible dose-dependent effect on various red blood cell parameters.
(§2) The groups of mice were treated with either carboplatin or vehicle (Phosphate Buffered Saline, PBS) by intraperitoneal administration on Days -2 and -1 as delineated below. The optimal dose of carboplatin used to induce thrombocytopenia in the BALB/c mouse strain was previously determined to be a fractionated total dose of 120mg/kg given as two consecutive daily injections (i.e., 2x60mg/kg). One day following the second dose of carboplatin, groups of mice were treated with PEGylated TPO Compound No. 1 or vehicle (sterile saline, SS, preservative-free 0.9% sodium chloride) by IV (bolus) injection as delineated in Table 1. The dose was administered on a per-weight basis (100ul/10g body weight).
On Days 5, 7, 9 and 11, five mice in each test group were weighed and then euthanised using CO2-asphyxiation and exsanguinations via cardiac puncture. The blood samples were transferred to separate EDTA (lavender-top) microcontainers for hematologic evaluation. Groups of control mice (5) were processed on Days 5 and 11. The data are presented graphically as group means +SEM.

carboplatin-treated mice = experiment: Example 4: lower doses (30, 100, 300ug/kg) as survival factor for erythrocyte lineages in carboplatin-treated mice; format: in vivo, BALB/c mouse
Procedure: as §1
The ability of PEGylated TPO Compound No. 1 to function as a survival factor for megakaryocyte and erythrocyte lineages in carboplatin-treated mice as determined by changes in hematological parameters was observed. […] In this study, the effect of lower doses of PEGylated TPO Compound No. 1 (i.e., 30, 100 and 300ug/kg) on the survival of erythrocyte lineages was examined to characterize the dose-response for this effect.
as §2, with “ip” for “intraperitoneal”, “-1” for “-2”, “0” for “-1”, “Approximately one hour” for “One day”, “4.” for “1.”
On Days 6, 8 and 12, five mice in each test group were weighed and then euthanised using CO2-asphyxiation and exsanguinations via cardiac puncture. The blood samples were transferred to separate EDTA (lavender-top) microcontainers for hematologic evaluation. Groups of control mice (5) were processed on Days 6 & 12.

In the case of “Methoxypolyethyleneglycol20000-propionyl-L-Isoleucyl-L-Glutamyl-Glycyl-L-Prolyl-L-Threonyl-L-Leucyl-L-Arginyl-L-Glutaminyl-L-2-Naphthylalanyl-L-Leucyl-L-Alanyl-L-Alanyl-L-Arginyl-Sarcosyl-Ne-(methoxypolyethyleneglycol20000-propionyl-L-Isoleucyl-L-Glutamyl-Glycyl-L-Prolyl-L-Threonyl-L-Leucyl-L-Arginyl-L-Glutaminyl-L-2-Naphthylalanyl-L-Leucyl-L-Alanyl-L-Alanyl-L-Arginyl-Sarcosyl-)-Lysinamide [PEGylated TPO Compound No. 1]”, the “small vessels in brain sections, fibrinogen/fibrin staining” value (carboplatin treated mice; 2x70mg/kg carboplatin plus 100ug/kg iv, Day 15) is reported as “appeared normal or exhibited fibrinogen/fibrin staining that was only slightly darker than the control group”, the “microthrombotic events in brain sections” value (carboplatin treated mice; 2x70mg/kg carboplatin plus 100ug/kg iv, entire dose group) is reported as “single” and the survival (carboplatin treated mice; 2x80mg/kg carboplatin plus 100ug/kg iv, all of the mice) is reported as “survived until the scheduled study termination”. The thrombocytopenia or anemia (carboplatin treated mice; 2x80mg/kg carboplatin plus 100ug/kg iv, on Day 15) was “did not exhibit thrombocytopenia or anemia”, the “decreases in platelet and RBC counts induced by the carboplatin” value (carboplatin treated mice; carboplatin 2x60 or 2x70mg/kg, 100ug/kg iv about one hour after second carboplatin dose, Day 15) was “totally inhibited” and the “fibrinogen deposition and blood clots in brain sections” value (carboplatin treated mice; carboplatin treated mice, FIG. 19) was “reduces”. For the same substance, the “time of dosing after chemotherapy at which prevention of carboplatin-induced anemia is observed” value ([1]; 300ug/kg iv) was ≤ 24 h, the “decreases in hemoglobin levels, RBC counts and hematocrits caused by carboplatin” value ([1]; 300ug/kg iv on Day 0 (1 hour after carboplatin treatment)) was “prevented” and the “decreases in hemoglobin levels, RBC counts and hematocrits caused by carboplatin” value ([1]; 300ug/kg iv on Day 1) was “prevented”. For the same substance, the “carboplatin-induced changes in erythrocyte parameters” value ([1]; 300ug/kg iv on Day 4) was “failed to affect”, the “onset, frequency or severity of signs (hunched, flaccid)” value ([1]; 300ug/kg iv, no detailed analysis) was “did not appear to have a dramatic effect” and the “weight loss associated with carboplatin treatment” value ([1]; administration on Day 0, Day 1 or Day 4, no statistical analysis) was “did not appear to affect the weight loss”. The “recovery of the lost body weight” value ([2]; all doses tested, 11-Day study period) was “enhanced the recovery of the lost body weight”, the “altered appearance and behavior (hunched, flaccid, soiled anogenital areas)” value ([2]; appeared to be dose-dependent) was “decreased the onset, frequency and severity of these signs” and the “decrease in hemoglobin levels caused by carboplatin” value ([2]; carboplatin 2x60mg/kg ip Days -2 & -1, all doses (300, 1000, 3000ug/kg iv Day 0), by Day 11) was “inhibited”. The “decreases in RBC count and hematocrit associated with carboplatin treatment” value ([2]; carboplatin 2x60mg/kg ip, 300-3000ug/kg iv Day 0, no statistical evaluation) was “inhibited”, the “weight loss or recovery” value (carboplatin-treated mice; 13-Day study period) was “did not appear to affect weight loss or recovery” and the “decreases in RBC counts and hematocrit induced by carboplatin treatment” value (carboplatin-treated mice; 30, 100, 300ug/kg iv Day 0) was “effectively inhibited”. For the same substance, the “decrease in hemoglobin levels caused by carboplatin” value (carboplatin-treated mice; all doses (30, 100, 300ug/kg iv Day 0, about 1 h after carboplatin), by Day 12) was “totally inhibited”, the “anemia induced by carboplatin” value (carboplatin-treated mice; all doses, on Day 12) was “completely prevent” and the “altered appearance and behavior (hunched, unkempt, soft stool)” value (carboplatin-treated mice; appeared to be dose-dependent) was “decreased the onset, frequency and severity of these signs”.
